The target in assay [1] is T1, human FGFR3 wild type enzyme (cytoplasmic domain) (Homo sapiens, UniProt P22607).
T1 construct: human FGFR3 wild type enzyme (cytoplasmic domain, from Carna Biosciences); purchased Carna Biosciences
As to the kind of experiment: FGFR3 wild type mobility shift assay (enzymatic assay). The settings on record: 75 μM ATP, 50 minutes at 30° C, Caliper EZ reader II. The format is biochemical. An excerpt:
FGFR3 Wild Type Mobility Shift Assay (Enzymatic Assay)

Assay [2] concerns NIH/3T3 cells transfected with control vector. As to the kind of experiment: NIH/3T3 mock cell proliferation assay (counter assay, CellTiter Glo). The format is cell-based. To be noted: Mus musculus, NIH3T3, 72 h, 72-hr incubation, top concentration 30 μM, counter assay for general toxicity, read-out: NIH/3T3 MOCK CTG (IC50). The protocol: NIH/3T3 Mock Cell Proliferation Assay
In day 1, 90 μL of cell suspension (NIH/3T3 cells transfected with the same control vector as in the above two proliferation assays) (total 30,000 cells per well in growth medium (DMEM containing 1% Glutamax, 10% FBS and 1% Pen/Strep)) was seeded in a 96-well plate and then incubated overnight at 37° C. and 5% CO2. In day 2, 10 μL of growth medium containing 10-fold stock solution of testing compound was added into cell cultures (9 dose points with 3× serial dilution, starting with 30 μM, 0.3% DMSO final). After 72-hr incubation at 37° C. and 5% CO2, in day 5 a volume of 50 μL CellTiter Glo (CTG) reagent was added into cell-containing 96-well plate and the plate was incubated at room temperature for 10 minutes before RLUs (relative light unit) were measured on a microplate reader with luminescence detection module.
Background: ATP-based viability assays read luminescence as a measure of living cells.

Assay [3] has as its target T2, NIH/3T3 cells overexpressing FGFR3 WT-TACC3 fusion protein (Homo sapiens, UniProt P22607).
T2 construct: NIH/3T3 FGFR3 WT-TACC3 CTG (IC50); other: 72-hr incubation, CellTiter Glo, top concentration 10 μM; fused on or other part: Q9Y6A5 (Transforming acidic coiled-coil-containing protein 3)
As to the kind of experiment: NIH/3T3 FGFR3 WT-TACC3 cell proliferation assay (CellTiter Glo). The settings on record: 72-hr incubation, top concentration 10 μM, read-out: NIH/3T3 FGFR3 WT-TACC3 CTG (IC50). The assay is classed as cell-based. The protocol: NIH/3T3 FGFR3 WT-TACC3 Cell Proliferation Assay
In day 1, 90 μL of cell suspension (NIH/3T3 cells overexpressing FGFR3 WT-TACC3 fusion protein) (total 30,000 cells per well in growth medium (DMEM containing 1% Glutamax, 10% FBS and 1% Pen/Strep)) was seeded in a 96-well plate and then incubated overnight at 37° C. and 5% CO2. […] After 72-hr incubation at 37° C. and 5% CO2, in day 5 a volume of 50 μL CellTiter Glo (CTG) reagent was added into cell-containing 96-well plate and the plate was incubated at room temperature for 10 minutes before RLUs (relative light unit) were measured on a microplate reader with luminescence detection module.

SMILES strings stand for the structures. Where a name gives a salt, the structure may show the parent alone.

T1 sequence (P22607 397-806 limits assumed): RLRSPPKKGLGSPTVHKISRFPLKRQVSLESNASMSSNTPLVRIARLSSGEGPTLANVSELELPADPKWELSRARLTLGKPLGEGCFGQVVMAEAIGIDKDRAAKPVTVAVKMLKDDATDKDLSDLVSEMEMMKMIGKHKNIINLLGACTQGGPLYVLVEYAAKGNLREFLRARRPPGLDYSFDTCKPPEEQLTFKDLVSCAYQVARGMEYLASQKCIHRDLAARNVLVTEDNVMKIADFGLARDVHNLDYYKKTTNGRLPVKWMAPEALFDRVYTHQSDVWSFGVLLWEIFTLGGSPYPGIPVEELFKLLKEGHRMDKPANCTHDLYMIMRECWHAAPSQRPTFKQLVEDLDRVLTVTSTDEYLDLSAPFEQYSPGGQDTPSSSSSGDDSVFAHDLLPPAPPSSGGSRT
T2 sequence (P22607 whole entry, change not shown, the tested form may be a part): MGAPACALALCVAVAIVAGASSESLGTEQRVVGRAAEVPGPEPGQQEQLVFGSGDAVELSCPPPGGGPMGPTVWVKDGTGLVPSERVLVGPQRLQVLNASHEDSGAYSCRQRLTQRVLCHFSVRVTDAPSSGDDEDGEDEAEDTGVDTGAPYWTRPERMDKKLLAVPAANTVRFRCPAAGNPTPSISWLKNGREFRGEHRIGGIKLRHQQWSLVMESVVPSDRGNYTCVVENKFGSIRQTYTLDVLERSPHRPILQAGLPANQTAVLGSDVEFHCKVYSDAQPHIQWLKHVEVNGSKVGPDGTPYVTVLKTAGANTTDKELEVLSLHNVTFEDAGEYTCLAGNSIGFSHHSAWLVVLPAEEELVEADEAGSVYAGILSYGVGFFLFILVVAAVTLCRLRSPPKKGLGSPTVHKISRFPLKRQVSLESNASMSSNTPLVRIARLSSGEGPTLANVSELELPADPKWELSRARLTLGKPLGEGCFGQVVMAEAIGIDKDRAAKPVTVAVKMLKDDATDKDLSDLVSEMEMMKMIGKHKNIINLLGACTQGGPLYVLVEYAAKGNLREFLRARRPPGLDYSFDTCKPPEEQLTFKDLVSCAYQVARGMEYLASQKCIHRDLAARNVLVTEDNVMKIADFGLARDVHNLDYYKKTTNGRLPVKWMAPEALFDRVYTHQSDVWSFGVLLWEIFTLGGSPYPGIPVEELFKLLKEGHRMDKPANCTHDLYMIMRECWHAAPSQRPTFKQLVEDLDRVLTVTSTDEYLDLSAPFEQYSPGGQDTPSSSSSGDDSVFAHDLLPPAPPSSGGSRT

Consider `CC(Nc1c(-c2nc3ccc(N4CCOCC4)c(F)c3[nH]2)c(=O)[nH]c2cn(C)nc12)c1ncccn1` (single isomer, unassigned) [Compound 14, (S*)-6-(7-fluoro-6-morpholino-1H-benzo[d]imidazol-2-yl)-2-methyl-7-((1-(pyrimidin-2-yl)ethyl)amino)-2H-pyrazolo[4,3-b]pyridin-5(4H)-one], for which the IC50 in assay [1] came out at 1.9 nM; in assay [2], 424 nM. The GI50 in assay [3] was determined as 4.06 nM.

On to `Cc1c(N2CCOCC2)ccc2nc(-c3c(NC(C)c4ncccn4)c4nn(C)cc4[nH]c3=O)[nH]c12` (single isomer, unassigned) [Compound 28, (S*)-2-methyl-6-(7-methyl-6-morpholino-1H-benzo[d]imidazol-2-yl)-7-((1-(pyrimidin-2-yl)ethyl)amino)-2H-pyrazolo[4,3-b]pyridin-5(4H)-one], for which the values for the IC50 in assay [1] and in assay [2] were 0.939 nM and 2070 nM, respectively. Moreover, the GI50 in assay [3] was 10 nM.

Turning to `C[C@H](Nc1c(-c2nc3ccc(N4CCCCC4)cc3[nH]2)c(=O)[nH]c2cn(C)nc12)c1ccccn1` [Compound 33, (S)-2-methyl-6-(6-(piperidin-1-yl)-1H-benzo[d]imidazol-2-yl)-7-((1-(pyridin-2-yl)ethyl)-amino)-2H-pyrazolo[4,3-b]pyridin-5(4H)-one], the IC50 turned out to be 17.5 nM in assay [1] and 6530 nM in assay [2]. Besides, in assay [3], the GI50 is 258 nM.

Consider `CC(C)C(Nc1c(-c2nc3cnc(N4CCN(C)CC4)cc3[nH]2)c(=O)[nH]c2cn(C)nc12)c1ncccn1` (single isomer, unassigned) [Compound 23, (S*)-2-methyl-7-((2-methyl-1-(pyrimidin-2-yl)propyl)amino)-6-(6-(4-methylpiperazin-1-yl)-1H-imidazo[4,5-c]pyridin-2-yl)-2H-pyrazolo[4,3-b]pyridin-5(4H)-one], for which the IC50 in assay [1] was found to be 0.979 nM; in assay [2], 266 nM. Also, the GI50 in assay [3] came to 34.6 nM.

`C[C@H](Nc1c(-c2nc3ccc(N4CCO[C@@H](C(F)(F)F)C4)cc3[nH]2)c(=O)[nH]c2cn(C)nc12)c1ncccn1` (relative stereo) [Compound 7, 2-Methyl-7-(((S*)-1-(pyrimidin-2-yl)ethyl)amino)-6-(6-((R*)-2-(trifluoromethyl)-morpholino)-1H-benzo[d]imidazol-2-yl)-2H-pyrazolo[4,3-b]pyridin-5(4H)-one]: the IC50 in assay [1] was 0.399 nM; in assay [2], 1080 nM. In addition, the GI50 in assay [3] stood at 10.5 nM.

With `CCn1cc2[nH]c(=O)c(-c3nc4ccc(N5CCOCC5)cc4[nH]3)c(NC(C)c3cocn3)c2n1` (single isomer, unassigned) [Compound 4A, (S*)-2-ethyl-6-(6-morpholino-1H-benzo[d]imidazol-2-yl)-7-((1-(oxazol-4-yl)ethyl)amino)-2H-pyrazolo[4,3-b]pyridin-5(4H)-one], the IC50 in assay [1] is 3.77 nM; in assay [2], 288 nM. Further, the GI50 in assay [3] turned out to be 26.1 nM.

As for `COCC(Nc1c(-c2nc3c(F)cc(N4CCOCC4)cc3[nH]2)c(=O)[nH]c2cn(C)nc12)c1ncccn1` (single isomer, unassigned) [Compound 29, (S*)-6-(4-fluoro-6-morpholino-1H-benzo[d]imidazol-2-yl)-7-((2-methoxy-1-(pyrimidin-2-yl)ethyl)amino)-2-methyl-2H-pyrazolo[4,3-b]pyridin-5(4H)-one], the figures for the IC50 in assay [1] and in assay [2] were 8.56 nM and 1530 nM, respectively. For the same molecule, the GI50 in assay [3] amounted to 98.3 nM.

`Cc1cc2nc(-c3c(N[C@@H](C)c4ncccn4)c4nn(C)cc4[nH]c3=O)[nH]c2cc1C(=O)N1CCCC1` [Compound 2]: the IC50 in assay [1] is 0.903 nM; in assay [2] it was 998 nM. Also, the GI50 in assay [3] is 21.3 nM.

On to `C[C@H](Nc1c(-c2nc3ccc(N4CCOC(F)(F)C4)cc3[nH]2)c(=O)[nH]c2cn(C)nc12)c1ncccn1` [Compound 25, (S)-6-(6-(2,2-difluoromorpholino)-1H-benzo[d]imidazol-2-yl)-2-methyl-7-((1-(pyrimidin-2-yl)ethyl)amino)-2H-pyrazolo[4,3-b]pyridin-5(4H)-one], for which the IC50 in assay [1] stood at 0.495 nM; in assay [2], 1210 nM. The GI50 in assay [3] worked out at 22.3 nM.

Take `CC(Nc1c(-c2nc3ccc(N4CCCCC4)cc3[nH]2)c(=O)[nH]c2cn(C)nc12)c1ncccn1` (single isomer, unassigned) [Compound 34, (S*)-2-methyl-6-(6-(piperidin-1-yl)-1H-benzo[d]imidazol-2-yl)-7-((1-(pyrimidin-2-yl)-ethyl)amino)-2H-pyrazolo[4,3-b]pyridin-5(4H)-one]: the IC50 was found to be 1.22 nM in assay [1] and 734 nM in assay [2]. In addition, in assay [3], the GI50 turned out to be 23.3 nM.

Regarding `C[C@H](Nc1c(-c2nc3ccc(N4CCO[C@H](C(F)(F)F)C4)cc3[nH]2)c(=O)[nH]c2cn(C)nc12)c1ncccn1` (relative stereo) [Compound 8, 2-Methyl-7-(((S*)-1-(pyrimidin-2-yl)ethyl)amino)-6-(6-((S*)-2-(trifluoromethyl)-morpholino)-1H-benzo[d]imidazol-2-yl)-2H-pyrazolo[4,3-b]pyridin-5(4H)-one], the IC50 in assay [1] is 0.542 nM; in assay [2], 444 nM. In assay [3], the GI50 came to 6.78 nM.

Consider `CCC(Nc1c(-c2nc3ccc(N4CCOCC4)cc3[nH]2)c(=O)[nH]c2cn(C)nc12)c1ncccn1` (single isomer, unassigned) [Compound 39, (S*)-2-methyl-6-(6-morpholino-1H-benzo[d]imidazol-2-yl)-7-((1-(pyrimidin-2-yl)-propyl)amino)-2H-pyrazolo[4,3-b]pyridin-5(4H)-one], for which the IC50 in assay [1] came out at 0.881 nM; in assay [2], 458 nM. In addition, the GI50 in assay [3] came out at 16.3 nM.

`CC(Nc1c(-c2nc3ccc(C4CCOCC4)cc3[nH]2)c(=O)[nH]c2cn(C)nc12)c1ncccn1` (single isomer, unassigned) [Compound 22, (S*)-2-methyl-7-((1-(pyrimidin-2-yl)ethyl)amino)-6-(6-(tetrahydro-2H-pyran-4-yl)-1H-benzo[d]imidazol-2-yl)-2H-pyrazolo[4,3-b]pyridin-5(4H)-one]: the IC50 in assay [1] is 0.377 nM; in assay [2] it was 1080 nM. Moreover, the GI50 in assay [3] is 18.1 nM.

As to `C[C@@H](Nc1c(-c2nc3ccc(N4CCN(C)CC4)cc3[nH]2)c(=O)[nH]c2cn(C)nc12)c1ncccc1C(F)(F)F` (single isomer, unassigned) [Compound 32, (R*)-2-methyl-6-(6-(4-methylpiperazin-1-yl)-1H-benzo[d]imidazol-2-yl)-7-((1-(3-(trifluoromethyl)pyridin-2-yl)ethyl)amino)-2H-pyrazolo[4,3-b]pyridin-5(4H)-one 0.2 formate], the IC50 in assay [1] was 4.29 nM; in assay [2], 4230 nM. Besides, the GI50 in assay [3] came to 195 nM.

In the case of `CCn1cc2[nH]c(=O)c(-c3nc4ccc(N5CCOCC5)cc4[nH]3)c(N[C@@H](C)c3ncccn3)c2n1` [Compound 46, (S)-2-ethyl-6-(6-morpholino-1H-benzo[d]imidazol-2-yl)-7-((1-(pyrimidin-2-yl)ethyl)-amino)-2H-pyrazolo[4,3-b]pyridin-5(4H)-one], the values for the IC50 in assay [1] and in assay [2] were 0.891 nM and 1070 nM, respectively. The GI50 in assay [3] is 13.2 nM.

On to `CC(Nc1c(-c2nc3cc(C(F)(F)F)c(N4CCOCC4)cc3[nH]2)c(=O)[nH]c2cn(C)nc12)c1ncccn1` (racemic) [Compound 19, (Rac)-2-Methyl-6-(6-morpholino-5-(trifluoromethyl)-1H-benzo[d]imidazol-2-yl)-7-((1-(pyrimidin-2-yl)ethyl)amino)-2H-pyrazolo[4,3-b]pyridin-5(4H)-one], for which the IC50 came out at 8.17 nM in assay [1] and 3990 nM in assay [2]. The GI50 in assay [3] was 21.5 nM.

As to `CC(Nc1c(-c2nc3ccc(N4CCN(CC(F)(F)F)CC4)cc3[nH]2)c(=O)[nH]c2cn(C)nc12)c1ncccn1` (single isomer, unassigned) [Compound 26, (S*)-2-methyl-7-((1-(pyrimidin-2-yl)ethyl)amino)-6-(6-(4-(2,2,2-trifluoroethyl)piperazin-1-yl)-1H-benzo[d]imidazol-2-yl)-2H-pyrazolo[4,3-b]pyridin-5(4H)-one], the IC50 was 0.637 nM in assay [1] and 768 nM in assay [2]. The GI50 in assay [3] is 5.96 nM.
